For data set [1], the system named is bronchoconstriction in guinea pigs due to an intravenous administration of synthetic leukotriene D4 (LTD4). As to the kind of experiment: Inhibition of LTD4-induced bronchoconstriction in guinea pigs, oral dosing (Konzett-Rossler method). The format is in vivo, guinea pig (Hartley strain). To be noted: Cavia porcellus, 1 h, guinea pig, p.o. one hour before LTD4 10 μg/kg i.v., inhibition of overflow volume 30 seconds after LTD4, read-out: ID50 (p.o.) (50% inhibitory dose). Here is the method: Guinea pigs of Hartley strain, both male and female, with body weights about 400 g were assigned to groups of 6 to 10 individuals, and the bronchoconstriction due to LTD4 was measured according to the method of Konzett-Rossler [Konzett, H. and Rossler, R.: Naunyn-Schmiedebergs Archiv fur Experimentelle Pathologie und Pharmakologie 195, 71-74 (1940)]. Each guinea pig was fixed in supine position under urethane anesthesia (1.5 g/kg, intraperitoneal) and the trachea was incised and connected to an artificial respiration apparatus, Rodent Respirator Model 680 [Harvard Apparatus Company, U.S.A.] via a cannula. The branch tube of this tracheal cannula was connected to Bronchospasm Transducer Model 7020 [Ugobasil Biological Researach Apparatus, Italy]. Under the conditions of 4 to 7 ml of air per stroke, 70 strokes per minute and a lung loading pressure of 10 cmH2 O, the volume of overflowing air was recorded on Rectigraph-8S (San-ei Sokki Co. Ltd., Japan) via a transducer. After administration of gallamine.triethiodide (1 mg/kg, i.v.), a solution of LTD4 in physiological saline (10 μg/kg) was intravenously administered and the bronchoconstriction elicited thereby was recorded for 15 minutes. […]
*^1 ID50 (50% inhibitory dose): Each value was calculated from […]

For data set [2], the system named is mice. As to the kind of experiment: Acute oral toxicity in mice. To be noted: male mice. The format is in vivo, mouse (Jcl:ICR strain). Here is the method: Five 5-week-old male mice per group, of Jcl:ICR strain, weighing about 30 g each, were used. Compound (I')-1 was suspended in a 5% solution of gum arabic and administered orally at the level of 0.2 ml per 10 grams body weight.

The record followed here is patent US4714774A, “Benzoic acid derivatives and their production” (Takeda Chemical Industries, Ltd., priority 1984, dated 1987).

Molecules are shown by their SMILES.

In the case of `CCCc1c(OCCCOc2ccc(C(=O)O)cc2Br)ccc(C(C)=O)c1OC(C)=O` [Compound (I')-1, 4-[3-(3-acetoxy-4-acetyl-2-propylphenoxy)propoxy]-3-bromobenzoic acid], the ED50 in data set [1] worked out at 47 µmol/kg. The autopsy findings entry in data set [2] (oral 500 mg/kg, autopsy after 7 days) is given as “did not reveal any abnormalities”. Further, in data set [2] (single oral dose 500 mg/kg), the “symptoms attributable to the compound” value is given as “no symptoms that could be attributable to compound (I')-1”.
